Results taken from patent publication US20080108603A1, “COMBINATION THERAPY FOR THE TREATMENT OF PAIN” (priority 2006, published 2008).
Entries after “also recorded” stand apart in the source; their conditions may differ.

What was measured:
adult male rats = assay: Postincisional hypersensitivity model of postoperative pain (paw incision, withdrawal threshold to von Frey filaments); type: in vivo, rat; details: intrathecal (i.t.) single drug; for anti-hypersensitivity effect (mechanical hypersensitivity), single drug: 24 h after paw incision surgery, 210 min observation
Method: Animal preparation: Following Animal Care and Use Committee approval, an intrathecal (i.t.) catheter with tip in the lumbar space is inserted as previously described in adult male rats weighing 250 g (Yaksh and Rudy, Physiol Behav. 1976, 7, 1032-1036). One week following the insertion of the i.t. catheter, paw incision surgery is performed as previously described (Brennan et al., Pain 1996, 64, 493-501). Briefly, animals are anesthetized with halothane, and a 1-cm long incision is made in the plantar aspect of the left hind paw starting 0.5 cm from the edge of the heel toward the toe after sterile preparation with 70% ethanol. The plantaris muscle is elevated and incised longitudinally. The wound is closed with 2 mattress sutures of 5.0 silk. Subsequently, withdrawal threshold to von Frey filaments is determined one day after surgery (Chaplanet al., J. Neurosci. Methods, 1994, 53, 55-63). For all testing but pilot dose ranging studies, investigators are blinded to study drug administration. A cut off value of 22 g is used.
Experimental Design: Twenty-four hours after paw incision surgery, single drugs and their combinations are studied: T-62, morphine and NBQX.
Single drug injection: For single drug administration, a volume containing 5 μL drug is used, followed by 10 μL of saline. The anti-hypersensitivity effects for single drugs at three doses with logarithmic spacing are studied over a 210 min observation period with testing at 30 min interval. Dose response curves are first constructed, and ED40 values for single drugs are then determined at the time of peak effect.
Drug interaction: For the combination of T-62 with morphine and NBQX, two injections are performed since the time of peak effect for morphine and NBQX is 30 min earlier than that of T-62 (T-62 is injected 30 min before drug injections). Paw withdrawal thresholds are determined before surgery, before drug injection, and 30, 60, 90, 120, 150, 180, and 210 min after the second drug injection. In addition, a fixed fractional dose ratio of 1:1 (w:w) is used for the combination of T-62 with morphine and NBQX. The dose response curves are then constructed for the combined drugs, and the ED40 values of the combined drugs are calculated at the time point of peak effect. Subsequently, isobolograms are constructed based on the ED40 values from single and combined drug administration.
Materials: T-62 may be obtained from King Pharmaceuticals (Cary, N.C.). T-62 is dissolved in saline with 20% DMSO. Morphine may be purchased from Astra Pharmaceutical Products, Inc. (Westborough, Mass.). NBQX and the remaining chemicals may be purchased from Sigma Chemical Co. (St. Louis, Mo.). Saline is used as vehicle for morphine and NBQX.
Data analysis: Data are presented as mean ±S.E. Withdrawal threshold data are analyzed by two-way analysis of variance followed by Fisher's LSD test. P<0.05 is considered significant. Isobolograms are statistically analyzed by student T test.

male Sprague-Dawley rats = assay: Neuropathic pain model (Chung model, spinal nerve ligation, withdrawal threshold to von Frey filaments); type: in vivo, rat; details: for anti-allodynic effect (withdrawal threshold): single intrathecal injection, at least 4 weeks after spinal nerve ligation, up to 20 hr
From the text: Spinal Nerve Ligation: After Animal Care and Use Committee approval, male Sprague-Dawley rats (Harlan, Indianapolis, Ind., USA) weighing 180-200 g undergo anesthesia as previously described by Kim and Chung (Pain 1992, 50, 355-363). Briefly, under general anesthesia with inhalational halothane, the left L5 and L6 spinal nerves are identified through a small laminotomy and tightly ligated. Approximately one week later, an intrathecal catheter is placed under general anesthesia by insertion under direct vision of a polyethylene catheter through a small slit in the dura at the cisterna magnum, and advanced 8.5 cm such that the catheter tip resides in the lower lumbar intrathecal space. Animals are studied approximately one week later. Ligation of the lumbar spinal nerves results in a primarily unilateral increase in the sensitivity to light touch on the operated side. Sensitivity is assessed via application of calibrated von Frey filaments. The withdrawal threshold is determined using an up down method as previously described by Chaplan et al. (J. Neurosci. Methods 1994, 53, 55-63).
Experimental Design: Animals receive, at least 4 weeks after spinal nerve ligation surgery, and at least 1 week after intrathecal catheter insertion, single injections of vehicle (β-cyclodextrin) or the drug substance, using a randomized and blinded protocol. Withdrawal thresholds are determined at intervals for up to 20 hr after injection.

adenosine A1 receptors = molecular target: T1, adenosine A1 receptors (Rattus norvegicus, UniProt P25099); details: from Li et al., Pan et al., U.S. Pat. No. 6,248,774 and 6,489,356; cited from earlier work
T1 sequence (P25099 1-326): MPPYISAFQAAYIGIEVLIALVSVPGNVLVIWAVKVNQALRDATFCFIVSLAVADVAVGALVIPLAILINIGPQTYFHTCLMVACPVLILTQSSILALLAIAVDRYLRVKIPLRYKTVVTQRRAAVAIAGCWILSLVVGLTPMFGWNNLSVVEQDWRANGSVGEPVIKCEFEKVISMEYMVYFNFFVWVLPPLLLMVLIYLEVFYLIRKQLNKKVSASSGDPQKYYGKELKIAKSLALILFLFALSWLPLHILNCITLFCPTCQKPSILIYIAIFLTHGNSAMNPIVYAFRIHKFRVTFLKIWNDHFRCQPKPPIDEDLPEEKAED

CN1CC[C@]23c4c5ccc(O)c4O[C@H]2[C@@H](O)C=C[C@H]3[C@H]1C5 [Morphine, morphine]
time of peak effect after injection (adult male rats): 30 min
anti-hypersensitivity effect (mechanical hypersensitivity), single drug (adult male rats): reduces mechanical hypersensitivity in a time and dose dependent manner

Nc1sc2c(c1C(=O)c1ccc(Cl)cc1)CCCC2 [T-62, (2-amino-4,5,6,7-tetrahydrobenzo[b]thiophen-3-yl)(4-chlorophenyl)methanone]
anti-hypersensitivity effect (mechanical hypersensitivity), single drug (adult male rats): modest effect; also recorded: reduced mechanical hypersensitivity in a time dependent manner
anti-allodynic effect (withdrawal threshold) (male Sprague-Dawley rats): dose-dependent anti-allodynic effects
effect on inflammatory and neuropathic pain (adenosine A1 receptors): reduce inflammatory and neuropathic pain

Nc1sc2c(c1C(=O)c1ccccc1)CCS2 [formula (Ib)]
anti-allodynic effect (withdrawal threshold) (male Sprague-Dawley rats): dose-dependent anti-allodynic effects

NS(=O)(=O)c1cccc2c1c([N+](=O)[O-])cc1nc(O)c(O)nc12 [NBQX, 2,3-dihydroxy-6-nitro-7-sulfamoylbenzo(f)quinoxaline]
time of peak effect after injection (adult male rats): 30 min
anti-hypersensitivity effect (mechanical hypersensitivity), single drug (adult male rats): reduces the mechanical hypersensitivity in a time and dose dependent manner

Nc1sc2c(c1C(=O)c1cccc3ccccc13)CCC2 [formula (Ic)]
relative potency among the three enhancers (male Sprague-Dawley rats; Chung model of chronic neuropathic pain, FIG. 8): most potent
anti-allodynic effect (withdrawal threshold) (male Sprague-Dawley rats): dose-dependent anti-allodynic effects
